Measured values: PubChem BioAssay AID602341 (The Scripps Research Institute Molecular Screening Center, 2012)
Activity calls are given as the source filed them. How the calls were made is not given here.

Columns and labels:
Assay in all cases: cellular hydrolase off-targets, SILAC, ABHD6 analysis – ABPP-SILAC, LC-MS, mouse cells, selectivity assay for DAGLb inhibitor project, late-stage follow-up (AID 602341)
[1] = system: Abhd11; conditions: serine hydrolases, stronger effect = lower value
[2] = system: Abhd12; conditions: serine hydrolases, stronger effect = lower value
[3] = system: Ache; conditions: serine hydrolases, stronger effect = lower value
[4] = system: Acot2; conditions: serine hydrolases, stronger effect = lower value
[5] = target: Acyl-protein thioesterase 1 (Mus musculus) (UniProt P97823); conditions: serine hydrolases, Lypla1, stronger effect = lower value
Acyl-protein thioesterase 1 (Mus musculus), sequence (P97823 whole entry, looked up): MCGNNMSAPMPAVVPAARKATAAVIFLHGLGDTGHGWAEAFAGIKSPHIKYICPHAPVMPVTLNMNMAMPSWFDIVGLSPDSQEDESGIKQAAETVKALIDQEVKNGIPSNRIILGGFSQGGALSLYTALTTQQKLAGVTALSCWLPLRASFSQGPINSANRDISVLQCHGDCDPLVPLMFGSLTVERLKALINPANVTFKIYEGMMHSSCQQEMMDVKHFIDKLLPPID

[6] = system: Apeh; conditions: serine hydrolases, stronger effect = lower value
[7] = system: Bat5; conditions: serine hydrolases, stronger effect = lower value
[8] = system: Ctsa; conditions: serine hydrolases, stronger effect = lower value
[9] = system: D230012E17Rik; conditions: serine hydrolases, stronger effect = lower value
[10] = target: Diacylglycerol lipase-beta (Mus musculus) (UniProt Q91WC9); conditions: serine hydrolases, Daglb, stronger effect = lower value
Diacylglycerol lipase-beta (Mus musculus), sequence (Q91WC9 whole entry, looked up): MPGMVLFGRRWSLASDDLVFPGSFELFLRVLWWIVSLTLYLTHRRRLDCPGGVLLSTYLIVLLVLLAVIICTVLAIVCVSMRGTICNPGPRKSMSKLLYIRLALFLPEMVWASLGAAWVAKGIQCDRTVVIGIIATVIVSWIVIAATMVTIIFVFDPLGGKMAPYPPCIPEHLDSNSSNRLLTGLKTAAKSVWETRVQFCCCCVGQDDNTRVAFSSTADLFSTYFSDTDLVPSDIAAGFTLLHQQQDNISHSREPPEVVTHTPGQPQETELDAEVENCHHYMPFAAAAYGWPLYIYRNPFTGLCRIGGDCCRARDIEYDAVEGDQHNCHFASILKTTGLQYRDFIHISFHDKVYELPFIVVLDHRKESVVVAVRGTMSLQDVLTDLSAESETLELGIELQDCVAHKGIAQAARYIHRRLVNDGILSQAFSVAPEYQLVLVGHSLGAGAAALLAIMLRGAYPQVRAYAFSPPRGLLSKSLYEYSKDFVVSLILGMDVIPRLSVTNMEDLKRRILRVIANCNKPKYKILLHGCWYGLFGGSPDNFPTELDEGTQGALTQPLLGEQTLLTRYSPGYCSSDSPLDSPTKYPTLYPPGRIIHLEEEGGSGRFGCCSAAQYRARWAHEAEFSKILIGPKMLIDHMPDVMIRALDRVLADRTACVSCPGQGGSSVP

[11] = system: Dpp7; conditions: serine hydrolases, stronger effect = lower value
[12] = system: Dpp8; conditions: serine hydrolases, stronger effect = lower value
[13] = system: Dpp9; conditions: serine hydrolases, stronger effect = lower value
[14] = system: Esd; conditions: serine hydrolases, stronger effect = lower value
[15] = system: Faah; conditions: serine hydrolases, stronger effect = lower value
[16] = system: Fam108a; conditions: serine hydrolases, stronger effect = lower value
[17] = system: Fam108b; conditions: serine hydrolases, stronger effect = lower value
[18] = system: Fam108c; conditions: serine hydrolases, stronger effect = lower value
[19] = system: Fasn; conditions: serine hydrolases, stronger effect = lower value
[20] = system: Htra2; conditions: serine hydrolases, stronger effect = lower value
[21] = system: Iah1; conditions: serine hydrolases, stronger effect = lower value
[22] = system: Kiaa1363; conditions: serine hydrolases, stronger effect = lower value
[23] = system: Lactb; conditions: serine hydrolases, stronger effect = lower value
[24] = system: Lipe; conditions: serine hydrolases, stronger effect = lower value
[25] = system: Lonp1; conditions: serine hydrolases, stronger effect = lower value
[26] = system: Lypla2; conditions: serine hydrolases, stronger effect = lower value
[27] = system: Lypla3; conditions: serine hydrolases, stronger effect = lower value
[28] = system: Lyplal1; conditions: serine hydrolases, stronger effect = lower value
[29] = target: Monoacylglycerol lipase ABHD6 (Mus musculus) (UniProt Q8R2Y0); conditions: serine hydrolases, stronger effect = lower value
Monoacylglycerol lipase ABHD6 (Mus musculus), sequence (Q8R2Y0 whole entry, looked up): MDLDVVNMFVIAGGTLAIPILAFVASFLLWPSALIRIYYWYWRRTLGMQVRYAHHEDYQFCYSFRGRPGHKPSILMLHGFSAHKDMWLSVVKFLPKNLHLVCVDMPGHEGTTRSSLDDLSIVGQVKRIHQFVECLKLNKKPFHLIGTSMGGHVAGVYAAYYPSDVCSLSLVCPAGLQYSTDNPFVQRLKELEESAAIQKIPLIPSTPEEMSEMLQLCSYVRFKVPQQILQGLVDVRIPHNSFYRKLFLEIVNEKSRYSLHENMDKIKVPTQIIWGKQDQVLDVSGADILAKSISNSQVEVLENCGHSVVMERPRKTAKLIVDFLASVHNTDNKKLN

[30] = system: Pafah1b2; conditions: serine hydrolases, stronger effect = lower value
[31] = system: Pafah1b3; conditions: serine hydrolases, stronger effect = lower value
[32] = target: Palmitoyl-protein thioesterase ABHD10, mitochondrial (Mus musculus) (UniProt Q6PE15); conditions: serine hydrolases, stronger effect = lower value
Palmitoyl-protein thioesterase ABHD10, mitochondrial (Mus musculus), sequence (Q6PE15 whole entry, looked up): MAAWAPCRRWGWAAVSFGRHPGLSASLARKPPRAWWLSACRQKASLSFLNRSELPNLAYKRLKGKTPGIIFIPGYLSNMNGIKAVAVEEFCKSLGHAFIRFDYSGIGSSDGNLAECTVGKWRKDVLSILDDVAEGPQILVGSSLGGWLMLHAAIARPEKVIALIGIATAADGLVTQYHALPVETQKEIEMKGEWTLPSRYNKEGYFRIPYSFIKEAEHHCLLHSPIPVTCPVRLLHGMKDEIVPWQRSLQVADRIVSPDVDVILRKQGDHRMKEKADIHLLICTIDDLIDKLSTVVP

[33] = system: Parl; conditions: serine hydrolases, stronger effect = lower value
[34] = system: Pla2g6; conditions: serine hydrolases, stronger effect = lower value
[35] = target: Platelet-activating factor acetylhydrolase 2, cytoplasmic (Mus musculus) (UniProt Q8VDG7); conditions: serine hydrolases, Pafah2, stronger effect = lower value
Platelet-activating factor acetylhydrolase 2, cytoplasmic (Mus musculus), sequence (Q8VDG7 whole entry, looked up): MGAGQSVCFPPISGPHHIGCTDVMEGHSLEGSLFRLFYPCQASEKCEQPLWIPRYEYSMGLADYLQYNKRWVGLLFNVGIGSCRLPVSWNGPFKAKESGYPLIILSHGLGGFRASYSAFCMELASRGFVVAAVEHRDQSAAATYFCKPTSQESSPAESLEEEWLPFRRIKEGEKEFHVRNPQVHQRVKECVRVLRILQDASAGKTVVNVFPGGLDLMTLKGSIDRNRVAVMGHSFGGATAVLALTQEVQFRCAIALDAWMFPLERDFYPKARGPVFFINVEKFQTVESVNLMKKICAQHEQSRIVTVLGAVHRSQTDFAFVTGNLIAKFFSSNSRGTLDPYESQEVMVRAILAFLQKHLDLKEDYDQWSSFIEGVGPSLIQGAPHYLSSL

[36] = system: Pme1; conditions: serine hydrolases, stronger effect = lower value
[37] = system: Pnpla6; conditions: serine hydrolases, stronger effect = lower value
[38] = system: Pnpla7; conditions: serine hydrolases, stronger effect = lower value
[39] = system: Pnpla8; conditions: serine hydrolases, stronger effect = lower value
[40] = system: Ppt2; conditions: serine hydrolases, stronger effect = lower value
[41] = system: Prcp; conditions: serine hydrolases, stronger effect = lower value
[42] = system: Prepl; conditions: serine hydrolases, stronger effect = lower value
[43] = target: Prolyl endopeptidase (Mus musculus) (UniProt Q9QUR6); conditions: serine hydrolases, Prep, stronger effect = lower value
Prolyl endopeptidase (Mus musculus), sequence (Q9QUR6 whole entry, looked up): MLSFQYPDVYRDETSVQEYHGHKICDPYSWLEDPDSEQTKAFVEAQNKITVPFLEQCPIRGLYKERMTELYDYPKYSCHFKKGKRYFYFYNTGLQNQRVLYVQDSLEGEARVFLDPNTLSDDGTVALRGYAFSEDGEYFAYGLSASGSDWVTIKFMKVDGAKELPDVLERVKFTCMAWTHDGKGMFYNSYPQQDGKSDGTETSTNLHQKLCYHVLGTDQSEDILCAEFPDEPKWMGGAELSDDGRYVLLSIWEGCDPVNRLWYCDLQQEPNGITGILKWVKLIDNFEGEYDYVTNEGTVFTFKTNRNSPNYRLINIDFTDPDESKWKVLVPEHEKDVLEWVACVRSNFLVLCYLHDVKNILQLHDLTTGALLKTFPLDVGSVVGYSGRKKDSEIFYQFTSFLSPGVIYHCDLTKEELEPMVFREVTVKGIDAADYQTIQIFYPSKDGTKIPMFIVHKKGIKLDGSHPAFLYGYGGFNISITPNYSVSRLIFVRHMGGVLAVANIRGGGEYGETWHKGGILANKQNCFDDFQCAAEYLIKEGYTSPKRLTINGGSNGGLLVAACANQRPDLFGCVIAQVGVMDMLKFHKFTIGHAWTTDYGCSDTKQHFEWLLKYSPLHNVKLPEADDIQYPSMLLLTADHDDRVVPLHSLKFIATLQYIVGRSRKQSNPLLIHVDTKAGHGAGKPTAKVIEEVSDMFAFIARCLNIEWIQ

[44] = system: Qrsl1; conditions: serine hydrolases, stronger effect = lower value
[45] = system: Rbbp9; conditions: serine hydrolases, stronger effect = lower value
[46] = system: Serhl; conditions: serine hydrolases, stronger effect = lower value
[47] = system: Tpp2; conditions: serine hydrolases, stronger effect = lower value

COc1ccc(-c2ccc(-c3cn(C(=O)N4CCCCC4c4ccccc4)nn3)cc2)cc1 (configuration not stated)
SILAC ratio (inhibitor/DMSO) [1]: 1.5 (inactive)
SILAC ratio (inhibitor/DMSO) [2]: 1.3 (inactive)
SILAC ratio (inhibitor/DMSO) [3]: 1.23 (inactive)
SILAC ratio (inhibitor/DMSO) [4]: 1.47 (inactive)
SILAC ratio (inhibitor/DMSO) [5]: 1.05 (inactive)
SILAC ratio (inhibitor/DMSO) [6]: 1.13 (inactive)
SILAC ratio (inhibitor/DMSO) [7]: 1.27 (inactive)
SILAC ratio (inhibitor/DMSO) [8]: 1.46 (inactive)
SILAC ratio (inhibitor/DMSO) [9]: 1.13 (inactive)
SILAC ratio (inhibitor/DMSO) [10]: 1.05 (inactive)
SILAC ratio (inhibitor/DMSO) [11]: 1.29 (inactive)
SILAC ratio (inhibitor/DMSO) [12]: 1.17 (inactive)
SILAC ratio (inhibitor/DMSO) [13]: 1.06 (inactive)
SILAC ratio (inhibitor/DMSO) [14]: 1.34 (inactive)
SILAC ratio (inhibitor/DMSO) [15]: 0.95 (inactive)
SILAC ratio (inhibitor/DMSO) [16]: 1.33 (inactive)
SILAC ratio (inhibitor/DMSO) [17]: 1.15 (inactive)
SILAC ratio (inhibitor/DMSO) [18]: 1.13 (inactive)
SILAC ratio (inhibitor/DMSO) [19]: 1.19 (inactive)
SILAC ratio (inhibitor/DMSO) [20]: 1.29 (inactive)
SILAC ratio (inhibitor/DMSO) [21]: 1.15 (inactive)
SILAC ratio (inhibitor/DMSO) [22]: 1.39 (inactive)
SILAC ratio (inhibitor/DMSO) [23]: 1.05 (inactive)
SILAC ratio (inhibitor/DMSO) [24]: 1.21 (inactive)
SILAC ratio (inhibitor/DMSO) [25]: 1.73 (inactive)
SILAC ratio (inhibitor/DMSO) [26]: 1.13 (inactive)
SILAC ratio (inhibitor/DMSO) [27]: 1.1 (inactive)
SILAC ratio (inhibitor/DMSO) [28]: 1.61 (inactive)
SILAC ratio (inhibitor/DMSO) [29]: 0.05
SILAC ratio (inhibitor/DMSO) [30]: 1.19 (inactive)
SILAC ratio (inhibitor/DMSO) [31]: 1.15 (inactive)
SILAC ratio (inhibitor/DMSO) [32]: 1.17 (inactive)
SILAC ratio (inhibitor/DMSO) [33]: 1.4 (inactive)
SILAC ratio (inhibitor/DMSO) [34]: 1.47 (inactive)
SILAC ratio (inhibitor/DMSO) [35]: 1.1 (inactive)
SILAC ratio (inhibitor/DMSO) [36]: 1.29 (inactive)
SILAC ratio (inhibitor/DMSO) [37]: 1.4 (inactive)
SILAC ratio (inhibitor/DMSO) [38]: 1.65 (inactive)
SILAC ratio (inhibitor/DMSO) [39]: 1.33 (inactive)
SILAC ratio (inhibitor/DMSO) [40]: 1.17 (inactive)
SILAC ratio (inhibitor/DMSO) [41]: 0.86 (inactive)
SILAC ratio (inhibitor/DMSO) [42]: 1 (inactive)
SILAC ratio (inhibitor/DMSO) [43]: 1.07 (inactive)
SILAC ratio (inhibitor/DMSO) [44]: 1.47 (inactive)
SILAC ratio (inhibitor/DMSO) [45]: 1.4 (inactive)
SILAC ratio (inhibitor/DMSO) [46]: 1.2 (inactive)
SILAC ratio (inhibitor/DMSO) [47]: 1.43 (inactive)
